Blank lines part the entries; values can stand above or below the compound they belong to.
Tests used:
HCV Replicon = HCV Replicon inhibition; format: cell-based; conditions: Hepatitis C virus
NS5B polymerase protein = target: T1, NS5B polymerase protein (Hepatitis C virus genotype 1a, UniProt P27958); assay: biochemical; conditions: pre-incubated 37° C. 30 minutes; RdRp reaction 90 minutes at 37° C.; read-out: HCV NS5B inhibition EC50
T1 construct: pre-incubated with the RNA template and NS5B polymerase protein; Replizyme
Experimental: The compounds were tested in the Replizyme HCV heterotemplate radioactive RNA-dependent RNA-polymerase (RdRp) assay. The test compounds were pre-incubated with the RNA template and NS5B polymerase protein at 37° C. for 30 minutes. The RdRp reaction was initiated with the addition of the NTPs to the buffer-NS5B-compound mix, and was allowed to proceed for 90 minutes at 37° C. Control reactions included: no enzyme, 5% DMSO (test compound solvent), no compound/solvent, Cordycepin-TP and HCV-796 (IC50 values used as a reference inhibition). Radioactive products were collected by applying the stopped reaction to DE-81 paper, air dried prior to washing with buffer comprising NaH2PO4 and sodium pyrophosphate to remove unincorporated ^32P-GTP in the NTP mix, and rinsed with dH2O followed by 100% ethanol. The DE-81 paper was air dried, squares cut out and placed in scintillation tubes for counting.

T1 sequence (P27958 2421-3011): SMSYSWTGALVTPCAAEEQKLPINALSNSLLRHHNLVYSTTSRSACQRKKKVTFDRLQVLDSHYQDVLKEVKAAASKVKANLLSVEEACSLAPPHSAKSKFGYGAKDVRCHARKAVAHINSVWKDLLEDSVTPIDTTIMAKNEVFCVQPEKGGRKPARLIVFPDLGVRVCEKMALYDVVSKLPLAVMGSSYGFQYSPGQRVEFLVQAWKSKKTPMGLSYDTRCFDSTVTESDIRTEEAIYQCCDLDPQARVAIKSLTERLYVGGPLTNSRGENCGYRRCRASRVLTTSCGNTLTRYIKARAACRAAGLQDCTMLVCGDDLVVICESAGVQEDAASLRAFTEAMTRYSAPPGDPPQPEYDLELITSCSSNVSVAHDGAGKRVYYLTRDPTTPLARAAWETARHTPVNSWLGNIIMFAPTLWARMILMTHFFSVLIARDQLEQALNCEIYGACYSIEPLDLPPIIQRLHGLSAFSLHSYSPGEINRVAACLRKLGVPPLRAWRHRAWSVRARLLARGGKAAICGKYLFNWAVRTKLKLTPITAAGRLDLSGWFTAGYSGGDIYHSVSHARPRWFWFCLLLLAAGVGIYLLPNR

Structure (SMILES): CC(C)CCc1c(O)c(C2=Nc3ccccc3S(=O)(=O)N2)c(O)c2ccccc12 [Compound 104, 1,3-dihydroxy-2-(1,1-dioxo-2H-(1,2,4)-benzothiadiazin-3-yl)-4-(3-methylbutyl)naphthalene]
EC50 (HCV Replicon): 1 to 10 µM
EC50 (NS5B polymerase protein): 0.1 to 1 µM

Structure (SMILES): O=S1(=O)NC(c2c(O)c(Br)c3ccccc3c2O)=Nc2ccccc21 [Compound 105, 4-bromo-1,3-dihydroxy-2-(1,1-dioxo-2H-(1,2,4)-benzothiadiazin-3-yl)naphthalene]
EC50 (HCV Replicon): 1 to 10 µM
EC50 (NS5B polymerase protein): 1 to 10 µM

Structure (SMILES): CC(C)CCn1cc(C2=NS(=O)(=O)c3ccccc3N2)c2ccccc21 [Compound 201]
EC50 (HCV Replicon): 10 to 50 µM
EC50 (NS5B polymerase protein): 10 to 50 µM

Structure (SMILES): CC(C)CCn1nc(C2=NS(=O)(=O)c3ccccc3N2)c2ccccc21 [Compound 202]
EC50 (HCV Replicon): 10 to 50 µM
EC50 (NS5B polymerase protein): 10 to 50 µM

Structure (SMILES): CC(C)CCn1cc(C2=NS(=O)(=O)c3cc(NS(C)(=O)=O)ccc3N2)c2ccccc21 [Compound 203]
EC50 (HCV Replicon): > 50 µM
EC50 (NS5B polymerase protein): 0.1 to 1 µM

Structure (SMILES): CC(C)CCn1nc(C2=NS(=O)(=O)c3cc(NS(C)(=O)=O)ccc3N2)c2ccccc21 [Compound 204]
EC50 (HCV Replicon): 10 to 50 µM
EC50 (NS5B polymerase protein): 0.1 to 1 µM

Structure (SMILES): COc1cccc2c1c(C1=NS(=O)(=O)c3cc(NS(C)(=O)=O)ccc3N1)cn2CCC(C)C [Compound 205]
EC50 (HCV Replicon): 10 to 50 µM
EC50 (NS5B polymerase protein): 10 to 50 µM

Structure (SMILES): COc1ccc2c(C3=NS(=O)(=O)c4cc(NS(C)(=O)=O)ccc4N3)cn(CCC(C)C)c2c1 [Compound 206]
EC50 (HCV Replicon): > 50 µM
EC50 (NS5B polymerase protein): 1 to 10 µM

Structure (SMILES): CC(C)CCn1cc(C2=NS(=O)(=O)c3cc(NS(C)(=O)=O)ccc3N2)c2cc(Cl)ccc21 [Compound 207]
EC50 (HCV Replicon): > 50 µM
EC50 (NS5B polymerase protein): 1 to 10 µM

Structure (SMILES): CC(C)CCn1cc(C2=NS(=O)(=O)c3cc(NS(C)(=O)=O)ccc3N2)c2cccc(Cl)c21 [Compound 208]
EC50 (HCV Replicon): > 50 µM
EC50 (NS5B polymerase protein): 0.1 to 1 µM

Structure (SMILES): CC(C)CCn1cc(C2=NS(=O)(=O)c3cc(NS(C)(=O)=O)ccc3N2)c2c(O)cccc21 [Compound 209]
EC50 (HCV Replicon): > 50 µM
EC50 (NS5B polymerase protein): 0.1 to 1 µM

Structure (SMILES): CC(C)CCn1cc(C2=NS(=O)(=O)c3cc(NS(C)(=O)=O)ccc3N2)c2ccc(O)cc21 [Compound 210]
EC50 (HCV Replicon): 10 to 50 µM
EC50 (NS5B polymerase protein): 0.1 to 1 µM

Structure (SMILES): CC(C)CCn1cc(C2=NS(=O)(=O)c3cc(NS(C)(=O)=O)ccc3N2)c2ccc(C(C)C)cc21 [Compound 211]
EC50 (HCV Replicon): 10 to 50 µM
EC50 (NS5B polymerase protein): 1 to 10 µM

Structure (SMILES): CC(C)CCn1cc(C2=NS(=O)(=O)c3cc(NS(C)(=O)=O)ccc3N2)c2cc(Br)ccc21 [Compound 212]
EC50 (HCV Replicon): > 50 µM
EC50 (NS5B polymerase protein): 1 to 10 µM

Structure (SMILES): CC(C)CCC1(C)C(=O)C(C2=Nc3ccccc3S(=O)(=O)N2)=C(O)c2cccn21 (stereo not shown) [Compound 213]
EC50 (HCV Replicon): 10 to 50 µM
EC50 (NS5B polymerase protein): < 0.1 µM

Structure (SMILES): CC(C)CCC1(C)C(=O)C(C2=NS(=O)(=O)c3cc(NS(C)(=O)=O)ccc3N2)=C(O)c2cccn21 (stereo not shown) [Compound 214]
EC50 (HCV Replicon): 0.1 to 1 µM
EC50 (NS5B polymerase protein): < 0.1 µM

EC50 (NS5B polymerase protein): 1 to 10 µM
Structure (SMILES): CC(C)CCC1(C)C(=O)C(C2=NS(=O)(=O)c3cc(NS(C)(=O)=O)ccc3N2)=C(O)c2nccn21 (stereo not shown) [Compound 215]

Structure (SMILES): CC(C)CCc1c2n(c(O)c(C3=NS(=O)(=O)c4cc(NS(C)(=O)=O)ccc4N3)c1=O)CCCC2 [Compound 220]
EC50 (HCV Replicon): 0.1 to 1 µM
EC50 (NS5B polymerase protein): < 0.1 µM

Structure (SMILES): CC(C)CCn1c(=O)c(C2=NS(=O)(=O)c3ccccc3N2)c(O)n2ccnc12 [Compound 221, 6-(1,1-Dioxo-1,4-dihydro-1lambda*6*-benzo[1,2,4]thiadiazin-3-yl)-5-hydroxy-8-(3-methyl-butyl)-8H-imidazo[1,2-a]pyrimidin-7-one]
EC50 (HCV Replicon): > 50 µM
EC50 (NS5B polymerase protein): 0.1 to 1 µM

Structure (SMILES): CC(C)CCn1c(=O)c(C2=NS(=O)(=O)c3cc(NS(C)(=O)=O)ccc3N2)c(O)n2ccnc12 [Compound 222, N-{3-[5-Hydroxy-8-(3-methyl-butyl)-7-oxo-7,8-dihydro-imidazo[1,2-a]pyrimidin-6-yl]-1,1-dioxo-1,4-dihydro-1lambda*6*-benzo[1,2,4]thiadiazin-7-yl}-methanesulfonamide]
EC50 (HCV Replicon): 0.1 to 1 µM
EC50 (NS5B polymerase protein): < 0.1 µM

Structure (SMILES): CC(C)CCC1(C)C(=O)C(C2=NS(=O)(=O)c3cc(NS(C)(=O)=O)ccc3N2)=C(O)c2ccnn21 (stereo not shown) [Compound 223]
EC50 (HCV Replicon): 1 to 10 µM
EC50 (NS5B polymerase protein): < 0.1 µM

Structure (SMILES): CS(=O)(=O)Nc1ccc2c(c1)S(=O)(=O)N=C(c1cccc(C(F)(F)F)c1)N2 [Compound 224]
EC50 (HCV Replicon): < 0.1 µM
EC50 (NS5B polymerase protein): 10 to 50 µM

Structure (SMILES): CC(C)CCc1c(=O)c(C2=NS(=O)(=O)c3cc(NS(C)(=O)=O)ccc3N2)c(O)n2ccccc12 [Compound 225]
EC50 (HCV Replicon): < 0.1 µM
EC50 (NS5B polymerase protein): < 0.1 µM

Structure (SMILES): CC(C)CCc1c(=O)c(C2=NS(=O)(=O)c3cc(NS(=O)(=O)C4CC4)ccc3N2)c(O)n2ccccc12 [Compound 226]
EC50 (HCV Replicon): < 0.1 µM
EC50 (NS5B polymerase protein): < 0.1 µM

Structure (SMILES): CC(C)(C)CCc1c(=O)c(C2=NS(=O)(=O)c3cc(NS(C)(=O)=O)ccc3N2)c(O)n2ccccc12 [Compound 227]
EC50 (HCV Replicon): < 0.1 µM
EC50 (NS5B polymerase protein): < 0.1 µM

Structure (SMILES): CS(=O)(=O)Nc1ccc2c(c1)S(=O)(=O)N=C(c1c(O)n3ccccc3c(Cc3ccc(F)cc3)c1=O)N2 [Compound 228]
EC50 (HCV Replicon): < 0.1 µM
EC50 (NS5B polymerase protein): < 0.1 µM

Structure (SMILES): CC(C)CCn1c(=O)c(C2=NS(=O)(=O)c3cc(NS(C)(=O)=O)ccc3N2)c(O)n2nccc12 [Compound 229, N-{3-[7-Hydroxy-4-(3-methyl-butyl)-5-oxo-4,5-dihydro-pyrazolo[1,5-a]pyrimidin-6-yl]-1,1-dioxo-1,4-dihydro-1lambda*6*-benzo[1,2,4]thiadiazin-7-yl}-methanesulfonamide]
EC50 (HCV Replicon): < 0.1 µM
EC50 (NS5B polymerase protein): 0.1 to 1 µM

Structure (SMILES): CS(=O)(=O)Nc1ccc2c(c1)S(=O)(=O)N=C(c1c(O)n3nccc3n(Cc3ccccc3)c1=O)N2 [Compound 230, N-[3-(4-Benzyl-7-hydroxy-5-oxo-4,5-dihydro-pyrazolo[1,5-a]pyrimidin-6-yl)-1,1-dioxo-1,4-dihydro-1lambda*6*-benzo[1,2,4]thiadiazin-7-yl]-methanesulfonamide]
EC50 (HCV Replicon): < 0.1 µM
EC50 (NS5B polymerase protein): 1 to 10 µM

Structure (SMILES): CS(=O)(=O)Nc1ccc2c(c1)S(=O)(=O)N=C(c1c(O)n3nccc3n(Cc3ccc(F)cc3)c1=O)N2 [Compound 231, N-{3-[4-(4-Fluoro-benzyl)-7-hydroxy-5-oxo-4,5-dihydro-pyrazolo[1,5-a]pyrimidin-6-yl]-1,1-dioxo-1,4-dihydro-1lambda*6*-benzo[1,2,4]thiadiazin-7-yl}-methanesulfonamide]
EC50 (HCV Replicon): < 0.1 µM
EC50 (NS5B polymerase protein): 10 to 50 µM

Structure (SMILES): CS(=O)(=O)Nc1ccc2c(c1)S(=O)(=O)N=C(c1c(O)n3nccc3n(CCc3ccc(F)cc3)c1=O)N2 [Compound 232, N-(3-{4-[2-(4-Fluoro-phenyl)-ethyl]-7-hydroxy-5-oxo-4,5-dihydro-pyrazolo[1,5-a]pyrimidin-6-yl}-1,1-dioxo-1,4-dihydro-1lambda*6*-benzo[1,2,4]thiadiazin-7-yl)-methanesulfonamide]
EC50 (HCV Replicon): < 0.1 µM
EC50 (NS5B polymerase protein): > 50 µM

Structure (SMILES): Cc1cc2n(CCC(C)C)c(=O)c(C3=NS(=O)(=O)c4cc(NS(C)(=O)=O)ccc4N3)c(O)n2n1 [Compound 233, N-{3-[7-Hydroxy-2-methyl-4-(3-methyl-butyl)-5-oxo-4,5-dihydro-pyrazolo[1,5-a]pyrimidin-6-yl]-1,1-dioxo-1,4-dihydro-1lambda*6*-benzo[1,2,4]thiadiazin-7-yl}-methanesulfonamide]
EC50 (HCV Replicon): < 0.1 µM
EC50 (NS5B polymerase protein): 1 to 10 µM

Structure (SMILES): CC(C)CCn1c(=O)c(C2=NS(=O)(=O)c3cc(NS(C)(=O)=O)ccc3N2)c(O)n2nc(C3CC3)cc12 [Compound 234, N-{3-[2-cyclopropyl-7-Hydroxy-4-(3-methyl-butyl)-5-oxo-4,5-dihydro-pyrazolo[1,5-a]pyrimidin-6-yl]-1,1-dioxo-1,4-dihydro-1lambda*6*-benzo[1,2,4]thiadiazin-7-yl}-methanesulfonamide]
EC50 (HCV Replicon): < 0.1 µM
EC50 (NS5B polymerase protein): 10 to 50 µM

Structure (SMILES): CC(C)CCn1c(=O)c(C2=NS(=O)(=O)c3cc(NS(C)(=O)=O)ccc3N2)c(O)n2ncnc12 [Compound 235, N-{3-[7-Hydroxy-4-(3-methyl-butyl)-5-oxo-4,5-dihydro-[1,2,4]triazolo[1,5-a]pyrimidin-6-yl]-1,1-dioxo-1,4-dihydro-1lambda*6*-benzo[1,2,4]thiadiazin-7-yl}-methanesulfonamide]
EC50 (HCV Replicon): < 0.1 µM
EC50 (NS5B polymerase protein): 1 to 10 µM

Structure (SMILES): CS(=O)(=O)Nc1ccc2c(c1)S(=O)(=O)N=C(c1c(O)n3ccccc3c(Cc3ccc(F)c(F)c3)c1=O)N2 [Compound 236, N-{3-[1-(3,4-Difluoro-benzyl)-4-hydroxy-2-oxo-2H-quinolizin-3-yl]-1,1-dioxo-1,4-dihydro-1lambda′6′-benzo[1,2,4]thiadiazin-7-yl}-methanesulfonamide]
EC50 (HCV Replicon): < 0.1 µM
EC50 (NS5B polymerase protein): < 0.1 µM

Structure (SMILES): CS(=O)(=O)Nc1ccc2c(c1)S(=O)(=O)N=C(c1c(O)n3ccccc3c(Cc3ccccc3F)c1=O)N2 [Compound 237, N-{3-[1-(2-Fluoro-benzyl)-4-hydroxy-2-oxo-2H-quinolizin-3-yl]-1,1-dioxo-1,4-dihydro-1lambda′6′-benzo[1,2,4]thiadiazin-7-yl}-methanesulfonamide]
EC50 (HCV Replicon): < 0.1 µM
EC50 (NS5B polymerase protein): < 0.1 µM

Structure (SMILES): CS(=O)(=O)Nc1ccc2c(c1)S(=O)(=O)N=C(c1c(O)n3ccccc3c(Cc3ccccc3)c1=O)N2 [Compound 238, N-[3-(1-Benzyl-4-hydroxy-2-oxo-2H-quinolizin-3-yl)-1,1-dioxo-1,4-dihydro-1lambda′6′-benzo[1,2,4]thiadiazin-7-yl]-methanesulfonamide]
EC50 (HCV Replicon): < 0.1 µM
EC50 (NS5B polymerase protein): < 0.1 µM

EC50 (NS5B polymerase protein): 10 to 50 µM
Structure (SMILES): Cc1cc2c(o1)c(C1=NS(=O)(=O)c3cc(NS(C)(=O)=O)ccc3N1)c(=O)n1ccccc21 [Compound 242]

EC50 (NS5B polymerase protein): < 0.1 µM
Structure (SMILES): CS(=O)(=O)Nc1ccc2c(c1)S(=O)(=O)N=C(c1c(O)n3ccccc3c(Cc3cccs3)c1=O)N2 [Compound 244]

Source: US20090257979A1, “Novel Inhibitors of Hepatitis C Virus Replication” (INTERMUNE, INC., priority 2008, published 2009)
